In patent US20240384268A1, “Oligonucleotides” (Hudson Institute of Medical Research, priority 2021, published 2024):

Target: T1, TLR8 (Homo sapiens, UniProt Q9NR97)
T1 sequence (Q9NR97 27-1041): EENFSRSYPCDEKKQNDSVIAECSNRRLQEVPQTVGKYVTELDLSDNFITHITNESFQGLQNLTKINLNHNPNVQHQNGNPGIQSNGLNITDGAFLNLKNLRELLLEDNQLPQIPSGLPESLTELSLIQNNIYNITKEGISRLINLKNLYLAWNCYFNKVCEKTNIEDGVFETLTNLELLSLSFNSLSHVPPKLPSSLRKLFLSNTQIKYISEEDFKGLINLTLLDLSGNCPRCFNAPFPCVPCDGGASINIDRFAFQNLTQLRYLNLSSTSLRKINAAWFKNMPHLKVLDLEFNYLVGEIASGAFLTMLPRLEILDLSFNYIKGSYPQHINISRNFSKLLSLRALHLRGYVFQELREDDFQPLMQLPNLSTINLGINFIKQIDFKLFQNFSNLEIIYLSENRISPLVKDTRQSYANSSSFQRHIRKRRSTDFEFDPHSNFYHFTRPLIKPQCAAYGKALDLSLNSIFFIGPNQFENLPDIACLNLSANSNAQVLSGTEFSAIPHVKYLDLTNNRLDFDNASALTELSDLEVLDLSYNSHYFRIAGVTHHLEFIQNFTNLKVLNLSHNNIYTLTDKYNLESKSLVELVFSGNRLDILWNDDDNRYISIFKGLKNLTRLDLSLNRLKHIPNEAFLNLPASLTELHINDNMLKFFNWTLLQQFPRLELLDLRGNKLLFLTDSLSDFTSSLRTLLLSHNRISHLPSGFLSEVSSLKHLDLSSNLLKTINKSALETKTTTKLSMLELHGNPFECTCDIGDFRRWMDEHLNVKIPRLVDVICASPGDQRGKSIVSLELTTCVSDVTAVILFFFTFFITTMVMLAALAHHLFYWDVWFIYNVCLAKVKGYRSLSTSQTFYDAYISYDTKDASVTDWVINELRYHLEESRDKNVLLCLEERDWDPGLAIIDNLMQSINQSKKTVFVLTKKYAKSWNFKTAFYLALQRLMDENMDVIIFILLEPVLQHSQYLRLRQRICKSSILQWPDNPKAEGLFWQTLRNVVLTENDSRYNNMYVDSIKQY
Test: HEK-TLR8 NF-κB-luciferase reporter, R848 or Motolimod stimulation (potentiation or inhibition)
Assay type: cell-based
Set-up: expressed in transfected cells; host or cells: 293XLhTLR8 (HEK293)
Settings: averaged NF-κB-Luciferase relative to R848 condition (fold increase); for TLR8 100 nM: MOE-modified ASO at 100 nM; for TLR8 500 nM: MOE-modified ASO at 500 nM

Row | Sequence | TLR8 100 nM | TLR8 500 nM
1 | ATGTGATGGCCTCCCATCTC (antisense; 2'-MOE modified, pattern not given here) [HPRT-333 MOE] | 0.939 | 1.429
2 | GGTGTCCTTGCACGTGGCTT (antisense; 2'-MOE modified, pattern not given here) [EGFR-1016 MOE] | 1.532 | 1.019
3 | GCGACTATACGCGCAATATG (antisense; 2'-MOE modified, pattern not given here) [NC5 2′MOE] | 1.067 | 0.883
4 | GCGGAGGTCTTGGCTTCGTG (antisense; 2'-MOE modified, pattern not given here) [MB21D1-526 MOE] | 1.598 | 2.226
5 | CTGTGATCTTGACATGCTGC (antisense; 2'-MOE modified, pattern not given here) [EGFR-2790 MOE] | 1.308 | 1.387
6 | GAGTCTCTGGAGCTTCCTCT (antisense; 2'-MOE modified, pattern not given here) [CAMSAP1-2456 MOE] | 0.849 | 0.683
7 | AGGTCTTGGCTTCGTGGAGC (antisense; 2'-MOE modified, pattern not given here) [MB21D1-522 MOE] | 3.657 | 5.064
8 | TCAAAGGACTGAGGAAAGGG (antisense; 2'-MOE modified, pattern not given here) [CAMSAP1-6273 MOE] | 3.896 | 3.406
9 | CAATGTGATGGCCTCCCATC (antisense; 2'-MOE modified, pattern not given here) [HPRT-335 MOE] | 1.518 | 1.677
10 | GGAGGTCTTGGCTTCGTGGA (antisense; 2'-MOE modified, pattern not given here) [MB21D1-524 MOE] | 3.976 | 5.288
11 | GTCTTGGCTTCGTGGAGCAG (antisense; 2'-MOE modified, pattern not given here) [MB21D1-520 MOE] | 2.383 | 3.536
12 | CAACACTTCGTGGGGTCCTT (antisense; 2'-MOE modified, pattern not given here) [HPRT-665 MOE] | 1.320 | 1.639
13 | GGGAAAGGTTATGCAAGGTC (antisense; 2'-MOE modified, pattern not given here) [CTNN2B-916 MOE] | 3.117 | 3.500
14 | AACACTTCGTGGGGTCCTTT (antisense; 2'-MOE modified, pattern not given here) [HPRT-664 MOE] | 2.725 | 3.167
15 | GTGTCTTCATCGGCCCTGCC (antisense; 2'-MOE modified, pattern not given here) [CAMSAP1-2113 MOE] | 1.247 | 1.093
16 | AGATCTGGCAGCCCATCAAC (antisense; 2'-MOE modified, pattern not given here) [CTNN2B-2516 MOE] | 3.069 | 4.465
17 | GGTGGTGGCCACCCATCTCA (antisense; 2'-MOE modified, pattern not given here) [CTNN2B-2479 MOE] | 1.491 | 0.874
18 | CCAACACTTCGTGGGGTCCT (antisense; 2'-MOE modified, pattern not given here) [HPRT-666 MOE] | 1.223 | 1.185
19 | GGAGATTTCAGAGCAGCTTC (antisense; 2'-MOE modified, pattern not given here) [EGFR-4885 MOE] | 3.122 | 4.308
20 | GTCCACATCCTGTGGCTCGT (antisense; 2'-MOE modified, pattern not given here) [CAMSAP1-2906 MOE] | 0.919 | 0.493
21 | GTCCTTGCACGTGGCTTCGT (antisense; 2'-MOE modified, pattern not given here) [EGFR-1013 MOE] | 1.900 | 1.593
22 | GCGTGTCTGGAAGCTTCCTT (antisense; 2'-MOE modified, pattern not given here) [CTNN2B-809 MOE] | 1.179 | 0.494
